Results reported in patent US9839632B2, “Methods and compositions using 4-amino-2-(2,6-dioxo-piperidine-3-yl)-isoindoline-1,3-dione for treatment and management of central nervous system cancers” (CELGENE CORPORATION, priority 2013, dated 2017).
Where two headings read alike, the source gives them in different places.

How the values were obtained:
[1] = Blood and brain microdialysis (unbound concentrations) in male CD-IGS rats after single p.o. administration; assay type: in vivo, rat; conditions: for Kp / Tmax: rat
Source text: Microdialysis: A total of 3 male CD-IGS rats were used. Stomach-cannulated CD-IGS rats (male, weight range: 250-300 g) supplied by Charles River Laboratories were used in this study. Following surgery, all animals were housed in BASi Raturn® containment systems with standard bedding material. Rat chow and water were available ad libitum, and all animals were kept in an ambient temperature room under a 6 am to 6 pm 12-hour lighting schedule.
Animal surgeries consisted of implanting a CMA/20 14/10PC vascular microdialysis probe (Part #8309571, CMA Microdialysis, North Chelmsford, Mass.) in the jugular vein, according to an IACUC protocol. Each animal was then stereotaxically implanted with an intracerebral guide directed toward the top of the striatum (A/P: 0.7, L/M: −3.0, DN: −3.0; from bregma), according to a rat stereotaxic atlas. Paxinos G. F. K., The mouse brain in stereotaxic coordinates (Academic Press, San Diego, Calif.) (2001). A BASi BR-4 brain microdialysis probe (Part # MD-2204, BASi, West Lafayette, Ind.) was inserted prior to recovery, and the probes were slowly perfused (0.5 μL/min) with either sterile lactated Ringer's (brain) or Dulbecco's phosphate-buffered saline (D-PBS; blood). Animals were allowed to recover for at least 24 hours prior to dosing. On the day of dosing, the blank perfusate was replaced with perfusate containing the probe calibrator, and flow was set to 1.25 μl/min. 4-amino-2-(2,6-dioxo-piperidine-3-yl)-isoindoline-1,3-dione was administered as a single p.o. administration via the stomach cannula, at 50 mg/kg (5 mL/kg) in a 0.5% A carboxymethylcellulose/0.25% Tween® 80 suspension formulation.
Microdialysate was collected in a cooling fraction collector, set at 4° C. (Eicom # EFC-82, EFR-82, Eicom, San Diego, Calif.) at intervals of 25 minutes for 10 hours after dosing. To calculate area-under-the-curve (AUC), the corrected concentration of each sample was multiplied by the interval over which the sample was collected; in this case 25 minutes, and divided by 60 minutes per hour. The sum of these values represented the total AUC value over the specified time range. To generate graphs, the concentration at each time point was plotted at the mid-point of each collection interval. Microdialysates were collected at the specified time points and analyzed for 4-amino-2-(2,6-dioxo-piperidine-3-yl)-isoindoline-1,3-dione concentration using a liquid chromatography-tandem mass spectrometry (LC-MS/MS) assay, within 12 hours. Interim storage was at 4° C.
Mass Spectral Analysis: Microdialysate samples were injected directly into the LC-MS/MS system without processing. Chromatographic separation was achieved using a Phenomenex Synergi C18 column (50×4.6 mm, 4 μm) with gradient elution of 0.1% formic acid in water and 0.1% formic acid in acetonitrile. Detection and quantitation were performed using positive electrospray in multiple reaction-monitoring (“MRM”) modes on a Waters Micromass Ultima tandem mass spectrometer. Transition ions monitored were m/z 274.1 to m/z 84.3 for the analyte and m/z 288.0 to m/z 98.0 for the probe calibrator CC-6032. Calibration was performed using weighted (1/x^2) quadratic regression of peak area. Two calibration curves for 4-amino-2-(2,6-dioxo-piperidine-3-yl)-isoindoline-1,3-dione in PBS and lactated ringers solution were constructed using standards at concentrations of 1.28, 2.56, 5.12, 10.2, 25.6, 64.0, 160, 400, 1000, and 2000 ng/mL. A quadratic regression model with a weighting of 1/(x^2) was used for the regression of calibration curves. Concentrations below the limit of quantitation (“BLOQ”) were treated as zero for calculations.

[2] = system: human monocyte U937 cells; assay: Phagocytosis assay, human monocyte U937 cells; assay type: cell-based; conditions: 3 or 10 ug/ml, 48 hours, P<0.05 vs control
Procedure: Phagocytosis assay: The impact of 4-amino-2-(2,6-dioxo-piperidine-3-yl)-isoindoline-1,3-dione on the phagocytic activity of macrophages was assessed in primary microglial cells and human monocyte cells (U937). The cells were cultured in complete medium for 4 days. They were then harvested and resuspended in Opti-MEM medium at 10^6 cells/ml and seeded in a 96 well plate at 100,000 viable cells/well. The experimental wells were treated with 4-amino-2-(2,6-dioxo-piperidine-3-yl)-isoindoline-1,3-dione 3 or 10 ug/ml. After 48 hours of treatment, the culture medium was quickly replaced with 100 ul of pHrodo BioParticles suspension (Life technologies and the cells were incubated in the suspension at 37° C. for 2-3 hours. Following incubation, the plates were scanned at 550 nm/600 nm (excitation/emission) using fluorescence plate reader. The fluorescence activity reflects the phagocytic activity of the macrophages. The impact of 4-amino-2-(2,6-dioxo-piperidine-3-yl)-isoindoline-1,3-dione treatment (% effect) was calculated as a fraction of the phagocytic activity in the positive control wells. Wan, C. P.; et al., J. Immunol. Methods, 1993, 162, pp. 1-7.

[3] = microdialysis, male CD-IGS rats, single p.o. 50 mg/kg, n = 3, listed as 4-amino-2-(2,6-dioxo-piperidine-3-yl)-isoindoline-1,3-dione, 50 mg/kg
[4] = microdialysis, male CD-IGS rats, single p.o. 50 mg/kg, n = 3, listed as pomalidomide, 50 mg/kg

**Q.** Which results are given for `Nc1cccc2c1C(=O)N(C1CCC(=O)NC1=O)C2=O` (stereo not drawn) [Pomalidomide, 4-amino-2-(2,6-dioxo-piperidine-3-yl)-isoindoline-1,3-dione]?
**A.** Kp ([1]; male, CD-IGS, oral, 50 mg/kg, crossed the blood brain barrier, rats, read-out: CNS penetration): ~0.39; AUC(0-10), unbound, Brain [1, 3]: 2700 ± 740 ng·h/mL; Cmax, unbound, Brain [1, 3]: 430 ± 63 ng/mL; AUC ratio Brain:Blood (unbound) [1, 4]: 0.39 ± 0.03; AUC(0-10), unbound, Blood [1, 4]: 6800 ± 2000 ng·h/mL; AUC(0-10), unbound, Brain [1, 4]: 2700 ± 740 ng·h/mL; Cmax, unbound, Blood [1, 4]: 1100 ± 82 ng/mL; Cmax, unbound, Brain [1, 4]: 430.0 ± 63 ng/mL; Tmax ([1]; blood (jugular vein) microdialysate, po, microdialysis, male CD-IGS rats, single p.o. 50 mg/kg, n = 3, read-out: Tmax, unbound, Blood): 4.6 ± 2.4 h; Tmax ([1]; brain (striatum) microdialysate, po, microdialysis, male CD-IGS rats, single p.o. 50 mg/kg, n = 3, read-out: Tmax, unbound, Brain): 4.1 ± 1.5 h; Kp ([1]; po, microdialysis, male CD-IGS rats, single p.o. 50 mg/kg, n = 3, read-out: AUC ratio Brain:Blood (unbound)): 0.39 ± 0.03; phagocytic activity [2]: significantly increased
